Entries after “also recorded” stand apart in the source; their conditions may differ. Structures can show the parent of a compound that is named as a salt. Where two headings read alike, the source gives them in different places. Values belong to the compound of their own block, whether it stands above or below them. Bridge positions count the residues as written; N and C are the ends. Ends that are not written are not given here. Peptide text beside a SMILES is read from it. * marks the point of attachment. Benzoyl(4-I) = O=C(c1ccc(I)cc1)*
Experiments:
[1] = molecular target: T1, GPIIb/IIIa activation state on gel filtered platelets (Homo sapiens, UniProt P05106+P08514); assay: PAC-1 binding to gel filtered platelets; assay type: cell-based; settings: PGE1, PGI2 and apyrase prior to antibody or agonist
T1 construct: Gel filtered platelets (GFP) were prepared from blood anticoagulated with 13 mM trisodium citrate; endogenous in cells; host or cells: gel filtered platelets from citrated blood
T1 sequence (P08514 32-887 limits assumed): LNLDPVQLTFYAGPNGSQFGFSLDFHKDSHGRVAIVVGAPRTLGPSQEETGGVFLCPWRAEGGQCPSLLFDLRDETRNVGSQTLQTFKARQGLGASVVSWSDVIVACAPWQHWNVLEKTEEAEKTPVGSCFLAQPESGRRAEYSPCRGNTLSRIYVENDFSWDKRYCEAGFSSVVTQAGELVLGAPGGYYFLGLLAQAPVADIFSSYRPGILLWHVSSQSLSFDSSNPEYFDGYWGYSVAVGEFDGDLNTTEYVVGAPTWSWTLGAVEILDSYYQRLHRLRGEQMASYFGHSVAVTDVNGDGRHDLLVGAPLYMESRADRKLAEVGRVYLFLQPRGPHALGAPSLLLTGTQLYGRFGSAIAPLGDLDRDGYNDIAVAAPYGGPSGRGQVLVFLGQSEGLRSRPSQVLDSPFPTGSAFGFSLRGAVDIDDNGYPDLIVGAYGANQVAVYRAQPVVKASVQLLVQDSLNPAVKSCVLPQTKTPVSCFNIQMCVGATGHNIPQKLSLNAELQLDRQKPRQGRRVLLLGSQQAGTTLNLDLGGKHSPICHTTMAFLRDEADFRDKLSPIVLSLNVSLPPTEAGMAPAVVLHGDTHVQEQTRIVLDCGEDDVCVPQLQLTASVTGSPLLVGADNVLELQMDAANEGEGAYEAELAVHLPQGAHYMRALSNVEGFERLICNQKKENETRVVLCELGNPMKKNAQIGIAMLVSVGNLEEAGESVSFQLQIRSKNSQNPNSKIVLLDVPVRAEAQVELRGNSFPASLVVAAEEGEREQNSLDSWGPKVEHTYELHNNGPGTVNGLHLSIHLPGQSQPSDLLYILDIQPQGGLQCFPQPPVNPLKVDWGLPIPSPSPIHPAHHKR
T1 sequence (P08514 891-1039 partner limits assumed): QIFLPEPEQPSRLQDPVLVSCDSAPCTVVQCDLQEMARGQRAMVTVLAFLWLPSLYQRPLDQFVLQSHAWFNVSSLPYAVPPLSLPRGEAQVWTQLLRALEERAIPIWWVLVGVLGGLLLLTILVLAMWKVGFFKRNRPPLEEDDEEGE
T1 sequence (P05106 27-788): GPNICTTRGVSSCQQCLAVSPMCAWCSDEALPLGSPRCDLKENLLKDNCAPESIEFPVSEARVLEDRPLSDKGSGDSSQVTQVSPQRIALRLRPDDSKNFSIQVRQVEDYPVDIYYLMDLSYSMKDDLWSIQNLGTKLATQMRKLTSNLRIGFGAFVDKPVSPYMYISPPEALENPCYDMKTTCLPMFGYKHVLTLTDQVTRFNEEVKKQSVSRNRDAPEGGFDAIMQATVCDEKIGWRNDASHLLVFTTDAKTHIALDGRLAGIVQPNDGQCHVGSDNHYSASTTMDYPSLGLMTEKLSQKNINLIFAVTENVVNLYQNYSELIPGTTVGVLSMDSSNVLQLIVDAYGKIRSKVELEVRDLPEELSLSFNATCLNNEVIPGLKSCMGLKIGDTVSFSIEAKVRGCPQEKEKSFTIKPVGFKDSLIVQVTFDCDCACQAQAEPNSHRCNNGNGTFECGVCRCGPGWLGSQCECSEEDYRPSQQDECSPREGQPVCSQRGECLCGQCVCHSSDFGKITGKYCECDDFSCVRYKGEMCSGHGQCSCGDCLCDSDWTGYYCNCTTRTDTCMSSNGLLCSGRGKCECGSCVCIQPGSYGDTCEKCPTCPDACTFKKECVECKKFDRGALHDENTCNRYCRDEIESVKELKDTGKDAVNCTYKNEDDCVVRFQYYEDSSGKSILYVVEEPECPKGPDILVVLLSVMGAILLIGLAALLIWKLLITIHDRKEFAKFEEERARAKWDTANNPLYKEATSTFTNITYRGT
Description: PAC-1 (Shattil et al. (1985) J. Biol. Chem. 260, 11107-11114) binding studies were done using 20 μg/mL FITC conjugated PAC-1 (University of Pennsylvania Cell Center (Philadelphia, Pa.)) diluted in PBS. 25 μL of resting 1×10^8 GFP/mL, in flow cytometry buffer containing 1 mM CaCl, was combined with 100 nM of antibody and FITC conjugated PAC-1 to a final volume of 100 μL. The sample was incubated for 1 hour at room temperature. Following incubation the cells were diluted to 300 μL in flow cytometry buffer immediately before flow cytometry analysis. Contol PAC-1 binding to activated platelets was tested by first activating the receptors with either 1 nM thrombin or 20 μM ADP. Some samples were pretreated with activation inhibitors 100 μM PGE1, 20 μg/ml apyrase (Sigma Chemical Company (St. Louis, Mo.)) and 10 μM PGI2 (BioMol (Plymouth Meeting, Pa.)) prior to antibody addition or platelet activation with ADP or thrombin.

[2] = tested on: gel filtered platelets; assay: Platelet aggregation (lumiaggregometry); assay type: cell-based
Description: Aggregation by platelets stir red (1000 rpm) at 37° C. was assayed using the Chrono-Log Lumiaggregometer. Antibody mAb3-758, mAb10-758 or mAb15-758 were added to 250 μL of 2×10^8 GFP/mL, in platelet buffer containing 2 mM CaCl, in the absence or presence of 20 μM ADP followed by the addition of 200 μg/mL fibrinogen. In some experiments PGE1, apyrase and PGI2 were included as activation inhibitors. Changes in light transmittance were recorded and transferred to Microsoft Excel for data plotting. For the determination of EC50 and IC50 of mAb3-758 and mAb10-758, respectively, control aggregations Pusing ADP alone were performed with each set of concentrations tested.

[3] = molecular target: T2, GPIIb/IIIa on gel filtered platelets (Homo sapiens, UniProt P05106+P08514); assay: Flow cytometry binding assay on platelets: effect of receptor occupancy or ADP activation on antibody binding; settings: GFP pretreated with 1 μM ligand, 100 nM antibody
T2 construct: Gel filtered platelets (GFP) were prepared from blood anticoagulated with 13 mM trisodium citrate; endogenous in cells; host or cells: gel filtered platelets from citrated blood
T2 sequence (P08514 32-887 limits assumed): as the sequence (P08514 32-887 limits assumed) above
T2 sequence (P08514 891-1039 partner limits assumed): as the sequence (P08514 891-1039 partner limits assumed) above
T2 sequence (P05106 27-788): as the sequence (P05106 27-788) above
Description: The platelet bound antibodies were separated from free antibodies by centrifugation in the presence of 100 μM PGE1 followed by resuspension in flow cytometry buffer containing 100 nM of FITC conjugated goat anti-mouse antibody, incubated for 1 hour at room temperature and analyzed using flow cytometry. The light scatter and fluorescence intensity of 20000 cells was collected using logarithmic gain.

[4] = molecular target: T3, purified human platelet αIIbβ3 (Homo sapiens, UniProt P05106+P08514); assay: Disassociation constants of GP IIb/IIIa antagonists on purified human αIIbβ3; assay type: binding
T3 construct: detergent solubilized platelet lysates were passed over a Concanavalin A-Sepharose 4B column; from tissue; host or cells: human platelets (given as outdated human plasma; platelet lysates)
T3 sequence (P08514 32-887 limits assumed): as the sequence (P08514 32-887 limits assumed) above
T3 sequence (P08514 891-1039 partner limits assumed): as the sequence (P08514 891-1039 partner limits assumed) above
T3 sequence (P05106 27-788): as the sequence (P05106 27-788) above
Description: GPIIb/IIIa was purified from outdated human plasma using a slight modification of the procedure described by Kouns et al. (Kouns et al. (1992) J. Biol. Chem. 267, 18844-18851). Briefly, detergent solubilized platelet lysates were passed over a Concanavalin A-Sepharose 4B column (Sigma Chemicals, St. Louis, Mo.), followed by elution with methyl-α-D mannopyranozide (Sigma Chemical, St. Louis, Mo.). […] All fractions were analyzed for purity by SDS-PAGE electrophoresis.

[5] = activated form of purified human αIIbβ3, read-out: Activated Form KD-A
[6] = unactivated form of purified human αIIbβ3, read-out: Unactivated Form KD-B
[7] = Activated Form KD-A, activated form of purified human αIIbβ3
[8] = Unactivated Form KD-B, unactivated form of purified human αIIbβ3

Compound: Nc1ncnc2c1ncn2[C@@H]1O[C@H](COP(=O)(O)OP(=O)(O)O)[C@@H](O)[C@H]1O [ADP]
PAC-1 binding after pretreatment with activation inhibitors [1]: completely blocked
platelet aggregation response stimulated by the substance alone ([2]; 100 nM mAb10-758, 1 μM mAb15-758, 20 μM ADP, control platelets): 69.6%
aggregation response following incubation with fibrinogen receptor antagonist ([2]; 10 μM of antagonist): 2.5%
EC50 ([2]; GFP with fibrinogen, read-out: EC50 ADP stimulated platelet aggregation): 1700 nM
aggregation response of platelets pretreated with activation inhibitors ([2]; mixture of PGE1, PGI2 and apyrase, 100 nM mAb10-758, 1 μM mAb15-758): 3.3%
aggregation response in control platelets of the antagonist experiment ([2]; no antagonist): 69.6%

Compound: N=C(N)NCCC[C@@H]1NC(=O)[C@@H]2CCCN2C(=O)[C@H](CC(N)=O)NC(=O)[C@@H](NC(=O)c2ccc(I)cc2)CSSC[C@@H](C(=O)O)NC(=O)[C@H](CC(=O)O)NC(=O)CNC1=O [compound B, cyclo-4-I-benzoyl-(Cys-Asn-Pro-Arg-Gly-Asp-Cys)-OH HOAc salt] ({Benzoyl(4-I)}-CNPRGDC-OH; disulfide 1-7 (inferred))
Kd [4, 7]: 1.5 nM
Kd [4, 8]: 60 nM

Compound: ECESGPCCRNCKFLKEGTICKRARGDDMDDYCNGKTCDCPRNPHKGPAT (disulfide 2-11, 7-32, 8-37, 20-39 (inferred)) [echistatin]
Kd [4, 7]: 4.6 nM
Kd [4, 8]: 4.9 nM

The next lines start with results.

Kd [4, 5]: 0.96 nM
Kd [4, 6]: 6.3 nM
Compound: N=C(N)c1ccc(C(=O)NC(Cc2ccc(O)cc2)C(=O)N2CCC(OCC(=O)O)CC2)cc1 (stereo not shown) [RO-44-9883, {1-[2-(4-carbamimidoyl-benzoylamino)3-(4-hydroxy-phenyl)propionyl]-piperidin-4-yloxy}-acetic acid]
induction of the neo-epitope recognized by anti-LIBS mAb10-758 and mAb15-758 [3]: induced; also recorded: induce the neo-epitope

Kd [4, 5]: > 100000 nM
Kd [4, 6]: > 100000 nM
Compound: O=C(O)COc1ccc2c(c1)CN(C(=O)c1ccc(N3CCNCC3)cc1)CC2 [compound A, 4-(N-piperazine)benzoyl-(N-1,2,3,4-tetrahydroisoquinoline-7-yl)oxy-acetic acid]

Kd [4, 5]: 4.5 nM
Kd [4, 6]: 610 nM
Compound: C[C@H](CC(=O)O)NC(=O)CN1CCC[C@@H](CCC2CCNCC2)C1=O [compound C, N-[3(R)-[2-(Piperidin-4-yl)ethyl]-2-piperidon-1-yl] acetyl-3(R)-methyl-β-alanine]

Kd [4, 5]: 0.03 nM
Kd [4, 6]: 2.4 nM
Compound: O=C(NC[C@H](NS(=O)(=O)c1cccnc1)C(=O)O)c1cc2cc(CCC3CCNCC3)sc2s1 [compound D, 2-(S)-(3-pyridylsulfonyl)amino-3-N-[5-[2-(4-piperidinyl)ethyl]-thienothiophene-2-carboxamide]propionic acid]
